{
  "source": "patent US7109150B2",
  "about": "“Trifluoromethylpyrrolecarboxamides and trifluoromethylpyrrolethioamides as fungicides” (Syngenta Crop Protection, Inc., priority 1999, dated 2006)",
  "data": [
    {"smiles": "Cn1cc(C(=O)Nc2ccccc2-c2ccc(Cl)s2)c(C(F)(F)F)c1", "note": "[Example 3, 1-Methyl-4-trifluoromethyl-1H-pyrrole-3-carboxylic acid [2′-(5′-chloro-thienyl)-2-benzamide]]", "values": [
      {"measurement": "melting point", "result": "139 to 141", "unit": "°C"}
    ]}
  ]
}
